Test results taken from ChEMBL document CHEMBL3885881, “DrugMatrix”.

Organism: Rattus norvegicus
Experiment: DrugMatrix - Regimen: Daily Repeat
Assay type: toxicity, organism-based, Sprague-Dawley
Set-up: regimen Daily Repeat, gender Male, age 6-8 weeks
Conditions: in vivo, po, route oral GAVAGE, vehicle 100 % WATER; for ABSOLUTE BASOPHIL / ABSOLUTE EOSINOPHIL / ABSOLUTE LYMPHOCYTE / ABSOLUTE MONOCYTE / ABSOLUTE SEGMENTED NEUTROPHIL / BASOPHIL / EOSINOPHIL / ERYTHROCYTE COUNT / HEMATOCRIT / LEUKOCYTE COUNT / LYMPHOCYTE / MEAN CORPUSCULAR HEMOGLOBIN / MEAN CORPUSCULAR HEMOGLOBIN CONCENTRATION / MEAN CORPUSCULAR VOLUME / MONOCYTE / NEUTROPHIL / NUCLEATED RED BLOOD CELLS / PLATELET COUNT: tissue Blood; for ALANINE AMINOTRANSFERASE / ALBUMIN / ALKALINE PHOSPHATASE / ASPARTATE AMINOTRANSFERASE / CARBON DIOXIDE / CHLORIDE / CHOLESTEROL / CREATINE PHOSPHOKINASE / CREATININE / LIPASE / POTASSIUM / TOTAL BILIRUBIN / TOTAL PROTEIN / BLOOD UREA NITROGEN: tissue Plasma
[1] = 0 mg/kg, 72 h, dose level Control, time 3 day
[2] = 0 mg/kg, 120 h, dose level Control, time 5 day
[3] = 44 mg/kg, 72 h, dose level Low, time 3 day
[4] = 44 mg/kg, 120 h, dose level Low, time 5 day

SMILES: NC(=O)c1ncn([C@@H]2O[C@H](CO)[C@@H](O)[C@H]2O)n1 [RIBAVIRIN]
- ABSOLUTE BASOPHIL [1]: 0 CELLS/uL
- ABSOLUTE EOSINOPHIL [1]: 40 CELLS/uL
- ABSOLUTE LYMPHOCYTE [1]: 13599.5 CELLS/uL
- ABSOLUTE MONOCYTE [1]: 239.33 CELLS/uL
- ABSOLUTE SEGMENTED NEUTROPHIL [1]: 1021.17 CELLS/uL
- BASOPHIL [1]: 0%
- EOSINOPHIL [1]: 0.33%
- ERYTHROCYTE COUNT [1]: 5.71 x10E6/uL
- HEMATOCRIT [1]: 36.35%
- LEUKOCYTE COUNT [1]: 14.9 x10E3/uL
- LYMPHOCYTE [1]: 91%
- MEAN CORPUSCULAR HEMOGLOBIN [1]: 24.62 pg
- MEAN CORPUSCULAR HEMOGLOBIN CONCENTRATION [1]: 38.65 G/DL
- MEAN CORPUSCULAR VOLUME [1]: 63.7 fL
- MONOCYTE [1]: 1.5%
- NEUTROPHIL [1]: 7.17%
- NUCLEATED RED BLOOD CELLS [1]: 0.33 /100WBC
- PLATELET COUNT [1]: 1225.5 x10E3/uL
- ALANINE AMINOTRANSFERASE [1]: 48.5 u/L
- ALBUMIN [1]: 4.18 G/DL
- ALKALINE PHOSPHATASE [1]: 390.83 u/L
- ASPARTATE AMINOTRANSFERASE [1]: 89 u/L
- CARBON DIOXIDE [1]: 24.83 mmol/L
- CHLORIDE [1]: 100.83 MEQ/L
- CHOLESTEROL [1]: 72.5 mg/dL
- CREATINE PHOSPHOKINASE [1]: 503 u/L
- CREATININE [1]: 0.2 mg/dL
- LIPASE [1]: 9.83 u/L
- POTASSIUM [1]: 6.16 MEQ/L
- TOTAL BILIRUBIN [1]: 0.2 mg/dL
- TOTAL PROTEIN [1]: 5.8 G/DL
- ABSOLUTE BASOPHIL [2]: 0 CELLS/uL
- ABSOLUTE EOSINOPHIL [2]: 21 CELLS/uL
- ABSOLUTE LYMPHOCYTE [2]: 14288.5 CELLS/uL
- ABSOLUTE MONOCYTE [2]: 205.33 CELLS/uL
- ABSOLUTE SEGMENTED NEUTROPHIL [2]: 968.5 CELLS/uL
- BASOPHIL [2]: 0%
- EOSINOPHIL [2]: 0.17%
- ERYTHROCYTE COUNT [2]: 5.83 x10E6/uL
- HEMATOCRIT [2]: 36.53%
- LEUKOCYTE COUNT [2]: 15.48 x10E3/uL
- LYMPHOCYTE [2]: 92%
- MEAN CORPUSCULAR HEMOGLOBIN [2]: 24.72 pg
- MEAN CORPUSCULAR HEMOGLOBIN CONCENTRATION [2]: 39.43 G/DL
- MEAN CORPUSCULAR VOLUME [2]: 62.68 fL
- MONOCYTE [2]: 1.33%
- NEUTROPHIL [2]: 6.5%
- NUCLEATED RED BLOOD CELLS [2]: 0.17 /100WBC
- PLATELET COUNT [2]: 1280.5 x10E3/uL
- ALANINE AMINOTRANSFERASE [2]: 50 u/L
- ALBUMIN [2]: 4.28 G/DL
- ALKALINE PHOSPHATASE [2]: 380.17 u/L
- ASPARTATE AMINOTRANSFERASE [2]: 82.67 u/L
- BLOOD UREA NITROGEN [2]: 15.33 mg/dL
- CARBON DIOXIDE [2]: 27.17 mmol/L
- CHLORIDE [2]: 100.33 MEQ/L
- CHOLESTEROL [2]: 60.67 mg/dL
- CREATINE PHOSPHOKINASE [2]: 441.5 u/L
- CREATININE [2]: 0.16 mg/dL
- LIPASE [2]: 9.17 u/L
- POTASSIUM [2]: 6.86 MEQ/L
- TOTAL BILIRUBIN [2]: 0.2 mg/dL
- TOTAL PROTEIN [2]: 6.12 G/DL
- ABSOLUTE BASOPHIL [3]: 0 CELLS/uL
- ABSOLUTE EOSINOPHIL [3]: 33.67 CELLS/uL
- ABSOLUTE LYMPHOCYTE [3]: 13109.33 CELLS/uL
- ABSOLUTE MONOCYTE [3]: 126 CELLS/uL
- ABSOLUTE SEGMENTED NEUTROPHIL [3]: 1164.33 CELLS/uL
- BASOPHIL [3]: 0%
- EOSINOPHIL [3]: 0.33%
- ERYTHROCYTE COUNT [3]: 5.44 x10E6/uL
- HEMATOCRIT [3]: 33.17%
- LEUKOCYTE COUNT [3]: 14.43 x10E3/uL
- LYMPHOCYTE [3]: 91.33%
- MEAN CORPUSCULAR HEMOGLOBIN [3]: 23.47 pg
- MEAN CORPUSCULAR HEMOGLOBIN CONCENTRATION [3]: 38.53 G/DL
- MEAN CORPUSCULAR VOLUME [3]: 60.97 fL
- MONOCYTE [3]: 0.67%
- NEUTROPHIL [3]: 7.67%
- NUCLEATED RED BLOOD CELLS [3]: 0 /100WBC
- PLATELET COUNT [3]: 1365.67 x10E3/uL
- ALANINE AMINOTRANSFERASE [3]: 53 u/L
- ALBUMIN [3]: 4.3 G/DL
- ALKALINE PHOSPHATASE [3]: 371.67 u/L
- ASPARTATE AMINOTRANSFERASE [3]: 93.67 u/L
- BLOOD UREA NITROGEN [3]: 13.67 mg/dL
- CARBON DIOXIDE [3]: 27.67 mmol/L
- CHLORIDE [3]: 101 MEQ/L
- CHOLESTEROL [3]: 71.33 mg/dL
- CREATINE PHOSPHOKINASE [3]: 286.67 u/L
- CREATININE [3]: 0.17 mg/dL
- LIPASE [3]: 9 u/L
- POTASSIUM [3]: 6.94 MEQ/L
- TOTAL BILIRUBIN [3]: 0.27 mg/dL
- TOTAL PROTEIN [3]: 5.97 G/DL
- ABSOLUTE BASOPHIL [4]: 0 CELLS/uL
- ABSOLUTE EOSINOPHIL [4]: 0 CELLS/uL
- ABSOLUTE LYMPHOCYTE [4]: 17320.33 CELLS/uL
- ABSOLUTE MONOCYTE [4]: 316 CELLS/uL
- ABSOLUTE SEGMENTED NEUTROPHIL [4]: 1397 CELLS/uL
- BASOPHIL [4]: 0%
- EOSINOPHIL [4]: 0%
- ERYTHROCYTE COUNT [4]: 5.46 x10E6/uL
- HEMATOCRIT [4]: 34.3%
- LEUKOCYTE COUNT [4]: 19.03 x10E3/uL
- LYMPHOCYTE [4]: 91%
- MEAN CORPUSCULAR HEMOGLOBIN [4]: 24.7 pg
- MEAN CORPUSCULAR HEMOGLOBIN CONCENTRATION [4]: 39.23 G/DL
- MEAN CORPUSCULAR VOLUME [4]: 62.87 fL
- MONOCYTE [4]: 1.67%
- NEUTROPHIL [4]: 7.33%
